Results from paper PMC10786919, “Design-rules for stapled peptides with in vivo activity and their application to Mdm2/X antagonists” (Nature Communications, 2024).
Converted amounts (≈) assume the structure as drawn. Like-named read-outs stand apart in the source and are kept apart here. Positions of bridges follow the written chain, without caps; N, C: chain ends. Non-standard residues stand in square brackets, D forms with d. Residues, ends and D or L forms follow the SMILES beside them. tBuAla = CC(C)(C)C[C@H](N)C(=O)O; R8 = C=CCCCCCC[C@@](C)(N)C(=O)O; Cba = N[C@@H](CC1CCC1)C(=O)O; R5 = C=CCCC[C@@](C)(N)C(=O)O; S5 = C=CCCC[C@](C)(N)C(=O)O

Assays:
[1] = Lactate dehydrogenase (LDH) release assay; type: cell-based; details: LDH: Cytotoxicity assay EC50
Procedure, shortened: (§1)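 A p53 β-lactamase reporter HCT116 line, 8000 cells per well, is exposed to test compounds at 0.5% final DMSO and scored for LDH leakage.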

[2] = Solubility assay (kinetic solubility, PBS pH 7); type: physicochemical; details: pH 7, aqueous buffer, kinetic from dmso stock
Procedure, shortened: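 Reference standards were made by diluting the 10 mM stock to 100 µM in acetonitrile:methanol:DMSO 10:80:10. Solubility in µM was calculated as the sample peak area divided by the standard peak area, multiplied by the standard concentration.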

[3] = Experimental LogD (partition coefficient)
HCT116 cells = assay: Lactate dehydrogenase (LDH) release assay; type: cell-based
Procedure, shortened: as §1

[4] = system: p53 responsive β-lactamase reporter in HCT116 cells; assay: cells; type: cell-based; details: for EC50: read-out: p53 reporter assay EC50
Procedure, shortened: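 Read-out used the ToxBLAzer Dual Screen for β-lactamase driven by a stably integrated p53-responsive reporter. Assay: 8000 HCT116 cells per well at 0.5% final DMSO. Reported numbers are geometric means over a minimum of three biological replicates.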

[5] = system: Jump-In T-REx CHO-K1 BLA cells; assay: cells; type: cell-based; details: for EC50: read-out: TETCHO: Counterscreen EC50
Method: This assay was based on Jump-In™ T-REx™ CHO-K1 BLA cells containing a stably integrated β-lactamase under the control of an inducible cytomegalovirus (CMV) promoter. Cells were maintained in Dulbecco’s […] Eagle Medium (DMEM) with 10% fetal bovine serum (FBS), Blasticidin, and Penicillin/Streptomycin and then transferred to 1.5 ml freezing vials and stored under liquid nitrogen in growth media containing 5% DMSO. […] Cells were seeded into a 384-well plate at a density of 4000 cells per well. Peptides were then dispensed to each well using a liquid handler, ECHO 555 and incubated for 16 h. The final working concentration of DMSO was 0.5%. β-lactamase activity was detected using the ToxBLAzer Dual Screen (Invitrogen), as per the manufacturer’s instructions. Measurements were carried out using the Envision multiplate reader (Perkin–Elmer). Counterscreen activity was defined as the amount of β-lactamase activity induced by tetracycline. Measurements were taken a minimum of three times (biological replicates) and values are reported as geometric means of the replicates.

[6] = pH 7, PBS, read-out: Solubility
[7] = not stated, Partition Coeff LogD

| SMILES | EC50 [1] [µM] | EPSA (physchem) [A^2] | solubility kinetic [2, 6] [µM] | logD [3, 7] | TETCHO: Counterscreen % Effect ([5]; 0% FBS 4Hr) [%] | also measured |
| --- | --- | --- | --- | --- | --- | --- |
| CC(=O)N[C@@H](CC(C)C)C(=O)N[C@H](C(=O)N[C@@H](Cc1ccccc1)C(=O)N[C@]1(C)CCCCCCC=CCCC[C@@](C)(C(=O)N[C@@H](CO)C(N)=O)NC(=O)[C@H](CC2CCC2)NC(=O)[C@H](CC(C)C)NC(=O)[C@H](CCC(N)=O)NC(=O)[C@H](Cc2c[nH]c3ccccc23)NC(=O)[C@H](Cc2ccc(O)cc2)NC(=O)[C@H](CCC(=O)O)NC1=O)[C@@H](C)O [MP-204] (Ac-LTF[R8]EYWQL[Cba][S5]S-NH2; staple 4-11) | > 50 | 216 | 15 (≈ 24.7 µg/mL) | 2.81 | – | – |
| CC(=O)N[C@@H](Cc1ccccc1)C(=O)N[C@]1(C)CCCCCCC=CCCC[C@@](C)(C(=O)N[C@@H](CO)C(N)=O)NC(=O)[C@H](CC2CCC2)NC(=O)[C@H](CC(C)C)NC(=O)[C@H](CCC(N)=O)NC(=O)[C@H](Cc2c[nH]c3ccccc23)NC(=O)[C@H](Cc2ccc(O)cc2)NC(=O)[C@H](CCC(=O)O)NC1=O [MP-203] (Ac-F[R8]EYWQL[Cba][S5]S-NH2; staple 2-9) | > 50 | 213 | 96 (≈ 137 µg/mL) | 2.61 | – | – |
| CC(C)[C@@H](CS(=O)(=O)C(C)C)N1C(=O)[C@@](C)(CC(=O)O)C[C@H](c2cccc(Cl)c2)[C@H]1c1ccc(Cl)cc1 [AMG232] | – | – | – | – | 72.2 | LDH: Cytotoxicity assay % Effect (HCT116 cells; 0% FBS 4Hr): -4.2%; LDH: Cytotoxicity assay % Effect (HCT116 cells; 10% FBS 4Hr): -12.8%; LDH: Cytotoxicity assay % Effect (HCT116 cells; 10% FBS 16Hr): -18.8%; solubility kinetic [2]: 138 µM (≈ 78.5 µg/mL); p53 reporter assay % Effect ([4]; 0% FBS 4Hr): 95.1%; p53 reporter assay % Effect ([4]; 10% FBS 4Hr): 82.7%; p53 reporter assay % Effect ([4]; 10% FBS 16Hr): 83.6%; EC50 ([4]; Homo sapiens, HCT-116, 4 h, 0% FBS 4Hr): 0.0116 µM; EC50 ([4]; Homo sapiens, HCT-116, 4 h, 10% FBS 4Hr): 0.0742 µM; EC50 ([4]; Homo sapiens, HCT-116, 16 h, 10% FBS 16Hr): 0.255 µM; logD [3]: 2.25; TETCHO: Counterscreen % Effect ([5]; 10% FBS 4Hr): 30.6%; TETCHO: Counterscreen % Effect ([5]; 10% FBS 16Hr): -10.3%; EC50 ([5]; T-REx-CHO-K1, 4 h, 0% FBS 4Hr): 45.6 µM; EC50 ([5]; T-REx-CHO-K1, 4 h, 10% FBS 4Hr): > 50.4 µM; EC50 ([5]; T-REx-CHO-K1, 16 h, 10% FBS 16Hr): > 50.4 µM |
| CC(=O)N[C@@H](CC(C)C)C(=O)N[C@@H](CCCNC(=N)N)C(=O)N[C@@H](Cc1ccccc1)C(=O)N[C@]1(C)CCCCCCC=CCCC[C@@](C)(C(=O)N[C@@H](CO)C(=O)N[C@@H](C)C(=O)N[C@@H](C)C(N)=O)NC(=O)[C@H](CC2CCC2)NC(=O)[C@H](CC(C)C)NC(=O)[C@H](CCC(N)=O)NC(=O)[C@H](Cc2c[nH]c3ccccc23)NC(=O)[C@H](Cc2ccc(O)cc2)NC(=O)[C@H](CCC(=O)O)NC1=O [MP-1192] (Ac-LRF[R8]EYWQL[Cba][S5]SAA-NH2; staple 4-11) | > 50 | 220 | 3 (≈ 5.53 µg/mL) | 2.79 | – | – |
| CC(=O)N[C@@H](CCCNC(=N)N)C(=O)N[C@H](C(=O)N[C@@H](Cc1ccccc1)C(=O)N[C@]1(C)CCCCCCC=CCCC[C@@](C)(C(=O)N[C@@H](CO)C(=O)N[C@@H](C)C(=O)N[C@@H](C)C(N)=O)NC(=O)[C@H](CC2CCC2)NC(=O)[C@H](CC(C)C)NC(=O)[C@H](CCC(N)=O)NC(=O)[C@H](Cc2c[nH]c3ccccc23)NC(=O)[C@H](Cc2ccc(O)cc2)NC(=O)[C@H](CCC(=O)O)NC1=O)[C@@H](C)O [MP-191] (Ac-RTF[R8]EYWQL[Cba][S5]SAA-NH2; staple 4-11) | > 50 | 222 | 3 (≈ 5.49 µg/mL) | 2.72 | – | – |
| CC(=O)N[C@@H](CC(C)C)C(=O)N[C@H](C(=O)N[C@@H](Cc1ccccc1)C(=O)N[C@]1(C)CCCCCCC=CCCC[C@@](C)(C(=O)N[C@@H](CO)C(=O)N[C@@H](C)C(=O)N[C@@H](C)C(N)=O)NC(=O)[C@H](CC2CCC2)NC(=O)[C@H](Cc2c[nH]cn2)NC(=O)[C@H](CCC(N)=O)NC(=O)[C@H](Cc2c[nH]c3ccccc23)NC(=O)[C@H](Cc2ccc(O)cc2)NC(=O)[C@H](CCC(=O)O)NC1=O)[C@@H](C)O [MP-200, ATSP-7041 (L9H)] (Ac-LTF[R8]EYWQH[Cba][S5]SAA-NH2; staple 4-11) | > 50 | 219 | 94.5 (≈ 171 µg/mL) | 2.69 | – | – |
| CC(=O)N[C@@H](Cc1c[nH]cn1)C(=O)N[C@H](C(=O)N[C@@H](Cc1ccccc1)C(=O)N[C@]1(C)CCCCCCC=CCCC[C@@](C)(C(=O)N[C@@H](CO)C(=O)N[C@@H](C)C(=O)N[C@@H](C)C(N)=O)NC(=O)[C@H](CC2CCC2)NC(=O)[C@H](CC(C)C)NC(=O)[C@H](CCC(N)=O)NC(=O)[C@H](Cc2c[nH]c3ccccc23)NC(=O)[C@H](Cc2ccc(O)cc2)NC(=O)[C@H](CCC(=O)O)NC1=O)[C@@H](C)O [MP-197, ATSP-7041 (L1H)] (Ac-HTF[R8]EYWQL[Cba][S5]SAA-NH2; staple 4-11) | > 50 | 222 | 17 (≈ 30.8 µg/mL) | 2.56 | – | – |
| CC(=O)N[C@@H](Cc1ccccc1)C(=O)N[C@]1(C)CCCCCCC=CCCC[C@@](C)(C(=O)N[C@@H](CO)C(=O)N[C@@H](C)C(=O)N[C@@H](C)C(N)=O)NC(=O)[C@H](CC2CCC2)NC(=O)[C@H](CC(C)C)NC(=O)[C@H](CCC(N)=O)NC(=O)[C@H](Cc2c[nH]c3ccccc23)NC(=O)[C@H](Cc2ccc(O)cc2)NC(=O)[C@H](CCC(=O)O)NC1=O [MP-1202] (Ac-F[R8]EYWQL[Cba][S5]SAA-NH2; staple 2-9) | > 50 | 214 | 15 (≈ 23.6 µg/mL) | 2.59 | – | – |
| CC(=O)N[C@H](C(=O)N[C@@H](CO)C(=O)N[C@@H](Cc1ccccc1)C(=O)N[C@]1(C)CCCCCCC=CCCC[C@@](C)(C(N)=O)NC(=O)[C@H](CC(C)(C)C)NC(=O)[C@H](CC(C)C)NC(=O)[C@H](C)NC(=O)[C@H](Cc2c[nH]c3ccccc23)NC(=O)[C@H](Cc2ccc(O)cc2)NC(=O)[C@H](CCC(=O)O)NC1=O)[C@@H](C)O [MP-149] (Ac-TSF[R8]EYWAL[tBuAla][S5]-NH2; staple 4-11) | 28.3 | – | – | – | 20.68 | LDH: Cytotoxicity assay % Effect (HCT116 cells): 42.59%; EC50 ([4]; 0% FBS 4Hr): 12.6 µM; EC50 ([5]; 0% FBS 4Hr): > 50 µM |
| CC(=O)N[C@@H](CC(C)C)C(=O)N[C@H](C(=O)N[C@@H](Cc1ccccc1)C(=O)NC(C)(C)C(=O)N[C@@H](CCC(=O)O)C(=O)N[C@@H](Cc1ccc(O)cc1)C(=O)N[C@@H](Cc1c[nH]c2ccccc12)C(=O)N[C@@H](CCC(N)=O)C(=O)N[C@@H](CC(C)C)C(=O)N[C@@H](CC1CCC1)C(=O)NC(C)(C)C(=O)N[C@@H](CO)C(=O)N[C@@H](C)C(=O)N[C@@H](C)C(N)=O)[C@@H](C)O [MP-7189] | > 50 | 199 | 24 (≈ 40 µg/mL) | 2.12 | – | – |
| CC(=O)N[C@@H](Cc1c[nH]cn1)C(=O)N[C@@H](Cc1c[nH]cn1)C(=O)N[C@@H](Cc1c[nH]cn1)C(=O)NCCCCCC(=O)N[C@H](C(=O)N[C@@H](CO)C(=O)N[C@@H](Cc1ccccc1)C(=O)N[C@]1(C)CCCCCCC=CCCC[C@@](C)(C(N)=O)NC(=O)[C@H](CC(C)C)NC(=O)[C@H](CC(C)C)NC(=O)[C@H](C)NC(=O)[C@H](Cc2c[nH]c3ccccc23)NC(=O)[C@H](Cc2ccc(O)cc2)NC(=O)[C@H](CCC(=O)O)NC1=O)[C@@H](C)O [MP-008] | 28.5 | – | – | – | 75.71 | LDH: Cytotoxicity assay % Effect (HCT116 cells): 42.18%; EC50 ([4]; 0% FBS 4Hr): 17.9 µM; EC50 ([5]; 0% FBS 4Hr): > 50 µM |
| CC(=O)N[C@H](C(=O)N[C@@H](CO)C(=O)N[C@@H](Cc1ccccc1)C(=O)N[C@]1(C)CCCC=CCCC[C@](C)(C(=O)N[C@@H](CC(C)C)C(=O)N[C@@H](CC(C)C)C(=O)N2CCC[C@H]2C(N)=O)NC(=O)[C@H](Cc2c[nH]c3ccccc23)NC(=O)[C@H](Cc2ccc(O)cc2)NC(=O)[C@H](CCC(=O)O)NC1=O)[C@@H](C)O [MP-1174] (Ac-TSF[R5]EYW[R5]LLP-NH2; staple 4-8) | > 50 | – | – | – | 7.183 | LDH: Cytotoxicity assay % Effect (HCT116 cells): 2.374%; EC50 ([4]; 0% FBS 4Hr): 18.7 µM; EC50 ([5]; 0% FBS 4Hr): > 50 µM |
| CC(=O)N[C@@H](CC(C)C)C(=O)N[C@H](C(=O)N[C@@H](Cc1ccccc1)C(=O)N[C@]1(C)CCCCCCC=CCCC[C@@](C)(C(=O)N[C@@H](CO)C(=O)N[C@@H](C)C(=O)N[C@@H](C)C(N)=O)NC(=O)[C@H](CC2CCC2)NC(=O)[C@H](CCCNC(=N)N)NC(=O)[C@H](CCC(N)=O)NC(=O)[C@H](Cc2c[nH]c3ccccc23)NC(=O)[C@H](Cc2ccc(O)cc2)NC(=O)[C@H](CCC(=O)O)NC1=O)[C@@H](C)O [MP-195] (Ac-LTF[R8]EYWQR[Cba][S5]SAA-NH2; staple 4-11) | > 50 | 216 | 3 (≈ 5.49 µg/mL) | 2.87 | – | – |
